For this assay, the system named is PMS1. Description: Mini-Gene Reporter Assay—PMS1 (firefly luciferase mini-gene reporter transiently transfected into HEK293 cells). Type of assay: cell-based. The conditions noted are these: Homo sapiens, mini-gene firefly luciferase reporter in HEK293 cells; for activation at 5 µM: read-out: PMS1 % Effect at 5 uM. From the text: Example 76. Mini-Gene Reporter Assay—PMS1
Mini-gene reporter constructs for each target site can be constructed by first PCR amplifying the region-of-interest including the sequence of the alternatively skipped, sequences of the immediate upstream and downstream introns, and sequences of the immediate upstream and downstream exons. Then the 3′ end of the amplified sequence can be ligated to a firefly luciferase reporter gene and cloned into the pcDNA3.1 vector backbone. The final reporter construct can be transiently transfected into HEK293 cells using Lipofectamine 3000 transfection reagents. Compounds that can induce the inclusion of the skipped exon in the reporter construct would increase the reporter firefly luciferase activity.
Test compounds may be diluted in duplicates and dispensed into an assay plate. Transient mini-gene reporter cell line stock is resuspended and dispensed into the assay plate. Assay plates are then centrifuged and incubated. A luciferase reagent (e.g. ONE-Glo firefly luciferase reagent from Promega®) may be added to the assay plate and the luminescence (RLU) signals recorded. EC50 values may be determined by curve fitting in Levenberg-Marquardt algorithm.
In Table D below, A indicates a IC50 (μM)<1 μM, B indicates a IC50 (μM) 1 μM to <10 μM, and C indicates a IC50 (μM) 10 μM to <50 μM. In Table D below, A indicates a >75% Effect at 5 μM μM. B indicates a 50 to <75% Effect at 5 μM μM, and C indicates a <50% Effect at 5 μM.
Background: Reporter assays use an easily measured gene product as a stand-in for the process of interest.

Molecules are shown by their SMILES. Counter-ions that a name gives are not always drawn. A value given as a limit tells only on which side of the number the result lay.

`CCNCCN(CC)c1cnc(NC(=O)c2cc3cn(C)nc3cc2OCC)cn1` [Compound 344]: the activation at 5 µM was less than 50%.

On to `CCOc1cc2nn(C)cc2cc1C(=O)Nc1cnc(NCC(F)C2CCNCC2)nc1` (centres unmarked) [Compound 381], for which the activation at 5 µM was less than 50%. The IC50 is the midpoint of a concentration-inhibition curve. Low values mean greater potency in that assay, high ones weaker potency in that assay. In turn, `CCOc1cc2nc(C)cn2cc1C(=O)Nc1ccc(N2C[C@@H]3CNC[C@]3(C)C2)nn1` (racemic) [Compound 253] yielded an IC50 of 1 to 10 µM. Turning to `CCOc1cc2nn(C)cc2cc1C(=O)Nc1cnc(N2CCNC(C)C2)nc1` (centres unmarked) [Compound 487], the activation at 5 µM was greater than 75%. Compound `CCOc1cc2nc(C)cn2cc1C(=O)Nc1ccc(N2CCNC3(CC3)C2)cc1F` [Compound 704, N-(4-4,7-diazaspiro[2.5]octan-7-yl-2-fluorophenyl)-7-ethoxy-2-methylimidazo[1,2-a]pyridine-6-carboxamide] had a 50% inhibitory concentration (IC50) of less than 1 µM. For `CCOc1cn2nc(C)cc2cc1C(=O)Nc1cnc(N2CCC3(CC2)CNCCO3)cn1` [Compound 542], the activation at 5 µM was less than 50%. The same measure, in the same setting: as for `CCOc1cn2nc(C)cc2cc1C(=O)Nc1cnc(N2CCOC3(CCNCC3)C2)cn1` [Compound 545], the figure is less than 50%; as for `CCOc1cc2nc(C)cn2cc1C(=O)Nc1cnc(N2CCNCC2)cn1` [Compound 693], greater than 75%.

`CCOc1cc2nn(C)cc2cc1C(=O)Nc1cnc(N2CCC(N)(CC)CC2)nc1` [Compound 410]: the activation at 5 µM was greater than 75%.

Take `CCOc1cc2nn(C)cc2cc1C(=O)Nc1cnc(NCC2CCNCC2C)nc1` (centres unmarked) [Compound 434]: the activation at 5 µM was less than 50%. Same read-out and setting: next, `CCOc1cc2nn(C)cc2cc1C(=O)Nc1cnc(NCc2ccc(CN)cc2F)nc1` [Compound 445]: less than 50%. `CCOc1cc2nn(C)cc2cc1C(=O)Nc1cnc(N2CCOC3(CCNCC3)C2)cn1` [Compound 357]: the activation at 5 µM is less than 50%.

Regarding `COc1cc2nc(C)cn2cc1C(=O)Nc1ccc(N2CC(C)NCC2C)cc1F` (centres unmarked) [Compound 163, N-(4-(2,5-dimethylpiperazin-1-yl)-2-fluorophenyl)-7-methoxy-2-methylimidazo[1,2-a]pyridine-6-carboxamide], the activation at 5 µM was greater than 75%. In turn, `CCOc1cc2nc(C)cn2cc1C(=O)Nc1ccc(N2CC3(CCNC3)C2)nn1` [Compound 267] gave an IC50 of 1 to 10 µM.

Compound `CCNC1COC2(C1)CN(c1ccc(NC(=O)c3cn4cc(C)nc4cc3OCC)nn1)C2` (centres unmarked) [Compound 297] registered an IC50 of 1 to 10 µM. On to `CCOc1cc2nc(C)cn2cc1C(=O)Nc1ccc(N2CC[C@@H](NC)C2)nn1` (single isomer, unassigned) [Compound 707], for which the activation at 5 µM was greater than 75%. Take `CCOc1cc2nc(C)cn2cc1C(=O)Nc1ccc(N2C[C@@H]3CCCN[C@@H]3C2)nn1` [Compound 260]: the IC50 was 1 to 10 µM.

Turning to `CCOc1cc2nc(C)cn2cc1C(=O)Nc1ccc(N2CC[C@H](NC)C2)nn1` (single isomer, unassigned) [Compound 706], the activation at 5 µM is greater than 75%. Same read-out and setting: next, `CCOc1cc2nn(C)cc2cc1C(=O)Nc1cnc(N2CCC3(CCNCC3)C2)cn1` [Compound 352]: greater than 75%.

As to `CCOc1cn2nc(C)cc2cc1C(=O)Nc1cnc(N2CCC3(CCCN3)CC2)cn1` [Compound 530], the activation at 5 µM was greater than 75%.

Regarding `CCOc1cc2nc(C)cn2cc1C(=O)Nc1cnc(N2CCC(NC)CC2)nc1` [Compound 648], the activation at 5 µM is less than 50%.

As for `CCOc1cc2nc(C)cn2cc1C(=O)Nc1cnc(N2CCC(N)CC2)cn1` [Compound 695], the activation at 5 µM is greater than 75%.

For `CCOc1cc2nn(C)cc2cc1C(=O)Nc1cnc(N[C@@H]2CCNC2)cn1` [Compound 376], the activation at 5 µM is greater than 75%.

For `CCOc1cc2nc(C)cn2cc1C(=O)Nc1ccc(N2CC[C@@H]3NCC[C@@H]3C2)nn1` (racemic) [Compound 261], the 50% inhibitory concentration (IC50) was 1 to 10 µM. Still for that read-out and setting: as for `Cc1cn2cc(C(=O)Nc3ccc(N4CCN[C@@H](C)C4)nn3)c(OC3CCOC3)cc2n1` (stereo partly drawn) [Compound 206, 2-methyl-N-(6-((S)-3-methylpiperazin-1-yl)pyridazin-3-yl)-7-((tetrahydrofuran-3-yl)oxy)imidazo[1,2-a]pyridine-6-carboxamide hydrochloride], the figure is less than 1 µM. As to `Cc1cn2cc(C(=O)Nc3ccc(N4CCN[C@H](C)C4)nc3)ncc2n1` [Compound 104, hydrochloride], the activation at 5 µM is less than 50%. `CCOc1cc2nc(C)cn2cc1C(=O)Nc1ccc(N2CCC(NC(C)(C)C)C2)nn1` (centres unmarked) [Compound 733, N-(6-(3-(tert-butylamino)pyrrolidin-1-yl)pyridazin-3-yl)-7-ethoxy-2-methylimidazo[1,2-a]pyridine-6-carboxamide]: the half-maximal inhibitory concentration (IC50) is 1 to 10 µM. For the compound `COc1cc2nc(C)cn2cc1C(=O)Nc1ccc(N2CCC3(CCN3)CC2)cc1F` [Compound 143, N-(2-fluoro-4-(1,7-diazaspiro[3.5]nonan-7-yl)phenyl)-7-methoxy-2-methylimidazo[1,2-a]pyridine-6-carboxamide], the activation at 5 µM is greater than 75%. As to `CNC1CCN(c2ccc(NC(=O)c3cn4cc(C)nc4cc3OC)c(F)c2)CC1` [Compound 164, N-(2-fluoro-4-(4-(methylamino)piperidin-1-yl)phenyl)-7-methoxy-2-methylimidazo[1,2-a]pyridine-6-carboxamide], the activation at 5 µM was greater than 75%.

`Cc1cn2cc(C(=O)Nc3ccc(N4CCNCC4)cn3)c(OC(C)C)cc2n1` [Compound 129, 7-isopropoxy-2-methyl-N-(5-(piperazin-1-yl)pyridin-2-yl)imidazo[1,2-a]pyridine-6-carboxamide hydrochloride] yielded a half-inhibitory concentration (IC50) of 1 to 10 µM. For the compound `CCOc1cc2nn(C)cc2cc1C(=O)Nc1ccc(C2=CCNCC2)nn1` [Compound 708, 6-ethoxy-2-methyl-N-(6-(1,2,3,6-tetrahydropyridin-4-yl)pyridazin-3-yl)-2H-indazole-5-carboxamide formate], the IC50 is less than 1 µM.

Regarding `COc1cc2nc(C)cn2cc1C(=O)Nc1ccc(N2C3CCCC2CNC3)cc1F` [Compound 140, N-(4-(3,9-diazabicyclo[3.3.1]nonan-9-yl)-2-fluorophenyl)-7-methoxy-2-methylimidazo[1,2-a]pyridine-6-carboxamide], the activation at 5 µM was greater than 75%. Still for that read-out and setting: as for `CCOc1cc2nn(C)cc2cc1C(=O)Nc1cnc(NC[C@H](C)NC)nc1` [Compound 390], the figure is less than 50%; as for `CCOc1cn2nc(C)cc2cc1C(=O)Nc1cnc(N2CC(N)C(C)(C)C2)nc1` (centres unmarked) [Compound 571], less than 50%.

As to `CCOc1cc2nn(C)cc2cc1C(=O)Nc1cnc(N2C[C@@H]3C[C@H]2CN3)nc1` [Compound 467], the activation at 5 µM was less than 50%.

In the case of `CCOc1nc2nc(C)cn2cc1C(=O)Nc1ccc(N2CCN(C)CC2)nn1` [Compound 731, 7-ethoxy-2-methyl-N-(6-(4-methylpiperazin-1-yl)pyridazin-3-yl)imidazo[1,2-a]pyrimidine-6-carboxamide formic acid], the IC50 was 1 to 10 µM. For `CCOc1cc2nn(C)cc2cc1C(=O)Nc1cnc(NC2C=CCNC2)cn1` (centres unmarked) [Compound 324], the activation at 5 µM is less than 50%. On the same count and under the same terms, as for `CCOc1cc2nn(C)cc2cc1C(=O)Nc1cnc(N2CC(N)C2)nc1` [Compound 479], the figure is less than 50%. The same measure, in the same setting: as for `CCOc1cn2nc(C)cc2cc1C(=O)Nc1cnc(N2CCC3CCNCC3C2)nc1` (centres unmarked) [Compound 611], the figure is less than 50%. In turn, `Cc1cn2cc(C(=O)Nc3ccc(N4CCNCC4)cn3)c(OC3CC3)cc2n1` [Compound 712, 7-cyclopropoxy-2-methyl-N-(5-(piperazin-1-yl)pyridin-2-yl) imidazo[1,2-a]pyridine-6-carboxamide hydrochloride] returned a 50% inhibitory concentration (IC50) of less than 1 µM. With `CCOc1cn2nc(C)cc2cc1C(=O)Nc1cnc(N2CCOC3(CCNC3)C2)cn1` (centres unmarked) [Compound 529], the activation at 5 µM was 50 to 75%.

Compound `CCOc1cc2nc(C)cn2cc1C(=O)Nc1ccc(N2CCC(C3CCCN3)CC2)nn1` (centres unmarked) [Compound 263] returned a 50% inhibitory concentration (IC50) of 1 to 10 µM.

`CCOc1cc2nc(C)cn2cc1C(=O)Nc1ccc(N2CCC(CNC)CC2)nn1` [Compound 270] displayed a half-maximal inhibitory concentration (IC50) of 1 to 10 µM. Regarding `CCOc1cn2nc(C)cc2cc1C(=O)Nc1cnc(N2CCC(C3CCCNC3)CC2)nc1` (centres unmarked) [Compound 610], the activation at 5 µM was less than 50%.

With `CCOc1cc2nn(C)cc2cc1C(=O)Nc1cnc(NCC[C@@H]2C[C@H](OC)CN2)nc1` [Compound 425], the activation at 5 µM was less than 50%.

On to `CCOc1cn2nc(C)cc2cc1C(=O)Nc1cnc(N2CCC(C3(O)CCNCC3)CC2)cn1` [Compound 505], for which the activation at 5 µM lay in the range of 50 to 75%. Same read-out and setting: next, `CCOc1cc2nn(C)cc2cc1C(=O)Nc1cnc(NC(C)C2CCNCC2)cn1` (centres unmarked) [Compound 356]: less than 50%; `CCOc1cc2nn(C)cc2cc1C(=O)Nc1cnc(N2CC(NC)C3(CC3)C2)cn1` (centres unmarked) [Compound 316]: 50 to 75%; `CCOc1cc2nc(C)cn2cc1C(=O)Nc1cnc(N2CCC3(CC2)CNCCO3)cn1` [Compound 683]: less than 50%.

`COc1cc2nc(C)cn2cc1C(=O)Nc1ccc(C2CCNCC2)cn1` [Compound 735, 7-methoxy-2-methyl-N-(5-(piperidin-4-yl)pyridin-2-yl) imidazo[1,2-a]pyridine-6-carboxamide hydrochloride] came in with an IC50 of 1 to 10 µM.

Source of the values: patent publication US20250066389A1, “HETEROCYCLIC AMIDES AND METHODS OF USING THE SAME” (Rgenta Therapeutics, Inc., priority 2021, published 2025).
